According to ChEMBL document CHEMBL1201862, “PubChem BioAssay data set” (2004):
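1) Cells in 96-well plates. 2) Compound, 48 h, 5 concentrations. 3) Linear interpolation between surrounding doses. 4) Unreached endpoint = highest concentration. The concentration for 50% growth inhibition is given as GI50.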 Calls of active or inactive are those of the source. Rule as the data show it: active = GI50 up to about 1.1 µM and inactive = higher.

What was measured:
Test in all cases: DTP human tumour cell line panel, 48 h
Malme-3M = tested on: Malme-3M
SK-OV-3 = tested on: SK-OV-3
LOX IMVI = tested on: LOX IMVI
MDA-MB-231 = tested on: MDA-MB-231
UACC-257 = tested on: UACC-257
NCI-H226 = tested on: NCI-H226
OVCAR-3 = tested on: OVCAR-3
SK-MEL-5 = tested on: SK-MEL-5
ACHN = tested on: ACHN
SF-268 = tested on: SF-268
MOLT-4 = tested on: MOLT-4
HCC 2998 = tested on: HCC 2998
HCT-15 = tested on: HCT-15
A498 = tested on: A498
SK-MEL-28 = tested on: SK-MEL-28
OVCAR-5 = tested on: OVCAR-5
HL-60 = tested on: HL-60
MCF7 = tested on: MCF7
OVCAR-8 = tested on: OVCAR-8
M14 = tested on: M14

Row | Structure (SMILES) | GI50 (Malme-3M) | GI50 (SK-OV-3) | GI50 (LOX IMVI) | GI50 (MDA-MB-231) | GI50 (UACC-257) | GI50 (NCI-H226) | GI50 (OVCAR-3) | GI50 (SK-MEL-5) | GI50 (ACHN) | GI50 (SF-268) | GI50 (MOLT-4) | GI50 (HCC 2998) | GI50 (HCT-15) [µM] | GI50 (A498) | GI50 (SK-MEL-28) | GI50 (OVCAR-5) | GI50 (HL-60) | GI50 (MCF7) | GI50 (OVCAR-8) | GI50 (M14)
1 | O=C1N[C@@H]2c3c(Br)sc(Br)c3C(=O)[C@@H]2N1 | 4.52 µM (inactive) | 14.1 µM (inactive) | 1.93 µM (inactive) | 4.83 µM (inactive) | 3.3 µM (inactive) | 29.6 µM (inactive) | 2.59 µM (inactive) | 9.29 µM (inactive) | 4.02 µM (inactive) | 3.33 µM (inactive) | 2.76 µM (inactive) | 1.81 µM (inactive) | 3.16 | 17.3 µM (inactive) | 3.78 µM (inactive) | 17.2 µM (inactive) | 2.14 µM (inactive) | 2.62 µM (inactive) | 2.9 µM (inactive) | 3.82 µM (inactive)
2 | O=c1[nH]c(=O)n(C2CC(O)C(CS)O2)cc1F (stereo not given) | 64.7 µM (inactive) | > 100 µM (inactive) | 61.9 µM (inactive) | > 80 µM (inactive) | > 100 µM (inactive) | > 100 µM (inactive) | > 92.3 µM (inactive) | 70.1 µM (inactive) | 21.4 µM (inactive) | 20.8 µM (inactive) | 62.5 µM (inactive) | 4.61 µM (inactive) | 74.5 | 26.6 µM (inactive) | 74.1 µM (inactive) | > 61.9 µM (inactive) | > 63.8 µM (inactive) | 8.38 µM (inactive) | 14.8 µM (inactive) | > 100 µM (inactive)
3 | CCOC(=O)C1(C(=O)OCC)C[C@H]2CON=C2[C@@H]1c1ccc(C(F)(F)F)cc1 | > 100 µM (inactive) | 57.8 µM (inactive) | 16.6 µM (inactive) | > 100 µM (inactive) | 30.8 µM (inactive) | 34.9 µM (inactive) | 40.1 µM (inactive) | 30.6 µM (inactive) | 19.1 µM (inactive) | > 100 µM (inactive) | 25.9 µM (inactive) | 31.9 µM (inactive) | 38.6 | 53.1 µM (inactive) | > 100 µM (inactive) | 72.6 µM (inactive) | 27.7 µM (inactive) | 35.9 µM (inactive) | 79.4 µM (inactive) | 55.1 µM (inactive)
